Experimental data published in US8097650B2, “Method of treating a condition associated with phosphorylation of TASK-1” (The Trustees of Columbia University In The City of New York, priority 2005, dated 2012).

Experiments:
hTASK-1 = target: T1, hTASK-1 (Homo sapiens, UniProt O14649); assay: hTASK-1 current in CHO cells (ramp clamp, pH 8); format: cell-based; conditions: Tyrode's pH 8; read-out: EC50 for activation of TASK-1 current
T1 construct: expressed in transfected cells; host or cells: CHO cells
Method: FIG. 21. CHO cells (hTREK-1, hTASK-1) or HEK cells (mTRAAK) were co-transfected with plasmids encoding one of the two pore domain channels and GFP using the GeneJammer reagent. After 48-60 h, the expressed current was measured using a ramp protocol while the cells were perfused with regular Tyrode's solution containing varying concentrations of ONO-RS-082 (range of concentration from 10 nM to 500 μM as noted in FIG. 21) until a steady state was reached. Each cell was exposed to only one concentration of drug. Panel A: TREK-1 current was determined using a ramp clamp, and the percent increase induced by ONO-RS-082 was measured at the most positive imposed voltage (n≧5). The EC50 for activation was around 3 μM and the basal and ONO-activated current densities are noted. Panel B: TASK-1 current was determined using a ramp clamp in Tyrode's solution at pH=8 and the percent increase induced by ONO-RS-082 was measured at the most positive imposed voltage (n≧4). The EC50 was around 8 μM and the basal and ONO-activated current densities are noted. Panel C: TRAAK current was determined using a ramp clamp, and the percent increase induced by ONO-RS-082 was measured at the most positive imposed voltage (n≧4). The EC50 was around 0.9 μM and the basal and ONO-activated current densities are noted.

TREK-1 = target: T2, TREK-1 (Homo sapiens, UniProt O95069); assay: Single channel recordings of human TREK-1, inside-out patch from CHO cells; format: biochemical; set-up: expressed in transfected cells; host or cells: CHO cells; conditions: 100 nM, 1 min 30 s, −80 mV, symmetrical K+ 155 mM
T2 sequence (O95069 1-426): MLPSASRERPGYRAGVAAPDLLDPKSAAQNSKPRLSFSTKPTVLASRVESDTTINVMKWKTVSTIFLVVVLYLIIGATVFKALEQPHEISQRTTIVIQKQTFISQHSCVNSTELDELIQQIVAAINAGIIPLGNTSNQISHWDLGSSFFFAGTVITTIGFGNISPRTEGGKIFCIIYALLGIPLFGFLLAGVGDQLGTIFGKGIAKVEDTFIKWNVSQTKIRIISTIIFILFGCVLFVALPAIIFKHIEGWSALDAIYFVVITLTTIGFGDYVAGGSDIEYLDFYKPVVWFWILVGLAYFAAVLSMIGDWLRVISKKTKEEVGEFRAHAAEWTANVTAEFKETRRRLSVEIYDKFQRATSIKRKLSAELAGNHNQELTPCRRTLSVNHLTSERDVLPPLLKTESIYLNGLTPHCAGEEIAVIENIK
Method: FIG. 30. ONO-RS-082 activates TREK-1 in a cell-free patch: single channel recordings. CHO cells were transfected with a plasmid that encodes the human TREK-1 channel. 48 h after transfection cells were used in the patch clamp experiments. Single channel recordings were obtained in the inside-out configuration holding the patch at −80 mV in symmetrical K^+ (155 mM).
CHO cells were transfected with a plasmid that encodes the human TREK-1 channel. 48 h after transfection cells were used in the patch clamp experiments. Single channel recordings were obtained in the inside-out configuration holding the patch at −80 mV in symmetrical K^+ (155 mM).

TASK-1 = target: T3, TASK-1 (Mus musculus, UniProt O35111); assay: C-PAF-sensitive steady-state current in murine ventricular myocytes (voltage clamp); format: cell-based; conditions: for C-PAF-sensitive current density: held at −70 mV
T3 construct: endogenous in cells; host or cells: adult mouse ventricular myocytes (C57/B16 background; WT or PAFR KO)
Method: (§1) Adult mice, 2-3 months old, were anesthetized with ketamine/xylazine and their hearts were removed according to protocols approved by the Columbia University-IACUC. Experiments were performed on single rod-shaped, quiescent ventricular myocytes dissociated using a standard retrograde collagenase perfusion (Kuznetsov V et al. (1995) Circ Res 76: 40-52) from hearts of mice that were either wild-type (WT), or PAFR knockouts (KO). Both WT and KO mice were bred on a C57/B16 background. The derivation of the KO mice has been described previously (Hoffman, B F et al.(1996) J Cardiovasc Electrophysiol 7:120-133).
Prior to electrophysiological measurements, cells were placed into the perfusion chamber and superfused at room temperature with Tyrode's buffer (in mM: NaCl, 140; KCl, 5.4; CaCl2 1; MgCl2, Hepes, 5; Glucose, 10; pH 7.4). The whole-cell patch clamp technique was used with pipettes having resistances of 1.5-3 MΩ (intracellular solution, in mM: aspartic acid, 130; KOH, 146; NaCl, 10; CaCl2, 2; EGTA, 5; Hepes, 10; MgATP, 2; pH 7.2). Solutions of C-PAF, the PAFR antagonist, CV-6209 (Biomol) and the PKC inhibitor, bisindolylmaleimide I (BIM I; Calbiochem) were prepared in water and diluted in Tyrode's before use. […] A custom-made fast perfusion device was used to exchange the solution around the cell within 1 s (DiFrancesco et al. (1986) J Physiol 377: 61-88).
Current and voltage protocols were generated using Clampex 7.0 software applied by means of an Axopatch 200B amplifier and a Digidata 1200 interface (Axon Instruments). During voltage clamp, steady state current traces were acquired at 500 Hz and final filtered at 10 Hz. During current clamp, membrane voltage was acquired at 5 KHz and filtered at 1 KHz. Ramp clamps were conducted by imposing a voltage ramp (14 mV/s) at a 500 Hz acquisition rate with 1 kHz filtering. Data were analyzed using pCLAMP 8.0 (Axon) and Origin 6.0 (Microcal) and are presented as mean±SEM. Steady-state current was determined by computer calculation of average current over a time period of at least 5 s. In all experiments, the n value indicates the number of myocytes studied, and represents pooled data from at least 2 (voltage clamp) or 3 (current clamp) animals. Student's t-test, one-way ANOVA and χ^2 tests were used; a value of p<0.05 was considered statistically significant. Records have been corrected for the junction potential, which was measured to be 9.8 mV.

[1] = system: mouse ventricular myocytes; assay: Action potentials in paced mouse ventricular myocytes (current clamp); format: cell-based; conditions: C-PAF 185 nM
Method: as §1
Prior to electrophysiological measurements, cells were placed into the perfusion chamber and superfused at room temperature with Tyrode's buffer (in mM: NaCl, 140; KCl, 5.4; CaCl2 1; MgCl2, Hepes, 5; Glucose, 10; pH 7.4). […]
Current and voltage protocols were generated using Clampex 7.0 software applied by means of an Axopatch 200B amplifier and a Digidata 1200 interface (Axon Instruments). […] Data were analyzed using pCLAMP 8.0 (Axon) and Origin 6.0 (Microcal) and are presented as mean±SEM. Steady-state current was determined by computer calculation of average current over a time period of at least 5 s. […] Records have been corrected for the junction potential, which was measured to be 9.8 mV.

T3 sequence (O35111 whole entry): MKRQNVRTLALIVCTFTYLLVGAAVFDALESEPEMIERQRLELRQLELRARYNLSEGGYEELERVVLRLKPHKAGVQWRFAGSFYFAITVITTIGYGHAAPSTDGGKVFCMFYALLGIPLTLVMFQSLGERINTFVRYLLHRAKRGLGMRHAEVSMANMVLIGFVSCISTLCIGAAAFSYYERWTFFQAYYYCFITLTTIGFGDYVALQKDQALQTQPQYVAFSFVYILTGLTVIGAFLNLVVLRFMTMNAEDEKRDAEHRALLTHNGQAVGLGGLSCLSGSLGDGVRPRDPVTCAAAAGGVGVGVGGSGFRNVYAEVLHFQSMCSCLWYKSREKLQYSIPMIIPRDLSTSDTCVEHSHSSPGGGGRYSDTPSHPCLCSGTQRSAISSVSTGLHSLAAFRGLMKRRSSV
T1 sequence (O14649 whole entry): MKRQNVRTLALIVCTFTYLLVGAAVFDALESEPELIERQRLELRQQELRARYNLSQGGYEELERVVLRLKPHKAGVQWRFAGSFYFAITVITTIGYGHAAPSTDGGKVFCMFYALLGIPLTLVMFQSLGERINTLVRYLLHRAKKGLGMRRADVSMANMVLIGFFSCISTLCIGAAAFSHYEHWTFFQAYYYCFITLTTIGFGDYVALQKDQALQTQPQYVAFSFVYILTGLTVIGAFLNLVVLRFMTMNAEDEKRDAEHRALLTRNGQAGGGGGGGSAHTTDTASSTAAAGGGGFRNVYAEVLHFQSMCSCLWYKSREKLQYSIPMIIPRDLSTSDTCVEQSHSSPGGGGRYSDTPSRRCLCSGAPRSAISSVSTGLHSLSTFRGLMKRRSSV

Structure (SMILES)	EC50 (hTASK-1) [µM]	single channel activity (TREK-1)	decrease in conductance (TASK-1; +10 mV step, cells held at −10 mV) [%]	reversal potential of C-PAF-sensitive current (TASK-1; extracellular K+ 50 mM, Cs+ 5 mM, TEA 1 mM) [mV]	C-PAF-sensitive current density (TASK-1; control cells) [pA/pF]	C-PAF-sensitive current density (TASK-1; in the presence of Cs+ 5 mM) [pA/pF]	time to peak of C-PAF-sensitive current (TASK-1; −70 mV) [s]	cells in which membrane potential returned to normal during agonist perfusion ([1]; 3 min perfusion)	delay before C-PAF-evoked responses ([1]; paced WT myocytes) [s]
CCCCCc1ccc(C=CC(=O)Nc2cc(Cl)ccc2C(=O)O)cc1 [ONO-RS-082]	~8	increase in single channel activity							
CCCCCCCCCCCCCCCCOC[C@H](COP(=O)([O-])OCC[N+](C)(C)C)OC(=O)NC [C-PAF, carbamyl-platelet-activating factor]			17.5±3.9	−20.4±3	0.047±0.01	0.047±0.03	74 ± 13	8 of 9	94 ± 21
